As usually defined, the inhibition is the change of the read-out against control, counted positive when it falls.

Results on two molecules are retold here after patent publication US9108930B2, “N1- and N2-carbamoyl-1,2,3-triazole serine hydrolase inhibitors and methods” (The Scripps Research Institute, priority 2011, dated 2015).

The test system of assay [1] is peritoneal macrophages of Pla2g4a-/- mice. Description: Metabolomics of macrophages from treated Pla2g4a-/- mice. The class given is in vivo, mouse. The note with it: 5 mg/kg, 4 hours, i.p. As for the experimental part:
Pla2g4a^−/− mice were treated with KT109 or KT195 (5 mg/kg, 4 hours, i.p.), thioglycolate-elicited macrophages were harvested, and then the macrophages were subjected to metabolomics analysis. The cellular levels of PGE2 and PGD2 were measured.
Metabolites were quantified by either selected reaction monitoring (SRM) of each metabolite using an Agilent G6410B Triple-Quad instrument or untargeted metabolomic analysis (substrate assays) using an Agilent 1100 series LC-MSD SL instrument. […] For analysis of diacylglycerols (DAGs) a Luna C5 column (50 mm×4.60 mm with 5 μm diameter particles) from Phenomenex was used. Mobile phase A was made of 95:5 v/v H2O:MeOH, and mobile phase B was composed of 60:35:5 v/v/v i-PrOH:MeOH:H2O. Ammonium hydroxide (0.1%) and formic acid (0.1%) was included to assist in ion formation in negative and positive ionization modes, respectively. For analysis of DAGs, 5 mM ammonium formate was also used in addition to 0.1% formic acid to assist in positive ionization and NH4+ adduct formation. For metabolite measurements, cells were resuspended in 1 mL of a 1% NaCl solution and added to 3 mL of a 2:1 v/v CHCl3:MeOH doped with 1 nmol of the following internal standards: d5-2-arachidonoylglycerol (2-AG), d8-arachidonic acid (AA), and d8-1-stearoyl-2-arachidonoylglycerol (SAG). The mixture was vortexed and then centrifuged (1,400×g, 3 min). The organic layer was removed, CHCl3 was added until the final volume was again 4 ml, and the extraction was repeated. The combined organic extracts were dried under a stream of N2 and resolubilized in 2:1 v/v CHCl3:MeOH (120 μl). 30 μL of resolubilized lipids were injected for positive mode (MAGs and DAGs) and negative mode (free fatty acids and eicosanoids) measurements.
The following parameters (MS) were used to measure the indicated metabolites by SRM (precursor ion, product ion, collision energy in V, polarity): C20:4 MAG or 2-AG (379, 287, 8, positive), d5-2-AG (384, 287, 5, positive), C18:0/C20:4 DAG or SAG (662, 341, 15, positive), d8-SAG (671, 671, 0, positive), C18:1/C20:4 DAG (660, 341, 15, positive), C16:0/C20:4 DAG (634, 341, 15, positive), C14:0/C20:4 DAG (606, 341, 15, positive), arachidonic acid or AA (303, 303, 0, negative), d8-AA (311, 267, 5, negative), PGE2 (351, 271, 10, negative), and PGD2 (351, 271, 10, negative). MS analysis was performed with an electrospray ionization source with the following parameters: drying gas temperature=350° C., drying gas flow rate=11 L/min, and the nebulizer pressure=35 psi. Prostaglandin SRM parameters were based on previously reported methods and transitions. Metabolites targeted by SRM were quantified by measuring the area under the peak in comparison with the internal standards. […]

The test system of assay [2] is serine hydrolases in mouse brain proteome. As to the kind of experiment: Selectivity profile by competitive ABPP (mouse brain proteome), DAGL series. The class given is biochemical.
Assay [3] concerns the target T1, DAGLB (Mus musculus, UniProt Q91WC9).
T1 sequence (Q91WC9 1-669): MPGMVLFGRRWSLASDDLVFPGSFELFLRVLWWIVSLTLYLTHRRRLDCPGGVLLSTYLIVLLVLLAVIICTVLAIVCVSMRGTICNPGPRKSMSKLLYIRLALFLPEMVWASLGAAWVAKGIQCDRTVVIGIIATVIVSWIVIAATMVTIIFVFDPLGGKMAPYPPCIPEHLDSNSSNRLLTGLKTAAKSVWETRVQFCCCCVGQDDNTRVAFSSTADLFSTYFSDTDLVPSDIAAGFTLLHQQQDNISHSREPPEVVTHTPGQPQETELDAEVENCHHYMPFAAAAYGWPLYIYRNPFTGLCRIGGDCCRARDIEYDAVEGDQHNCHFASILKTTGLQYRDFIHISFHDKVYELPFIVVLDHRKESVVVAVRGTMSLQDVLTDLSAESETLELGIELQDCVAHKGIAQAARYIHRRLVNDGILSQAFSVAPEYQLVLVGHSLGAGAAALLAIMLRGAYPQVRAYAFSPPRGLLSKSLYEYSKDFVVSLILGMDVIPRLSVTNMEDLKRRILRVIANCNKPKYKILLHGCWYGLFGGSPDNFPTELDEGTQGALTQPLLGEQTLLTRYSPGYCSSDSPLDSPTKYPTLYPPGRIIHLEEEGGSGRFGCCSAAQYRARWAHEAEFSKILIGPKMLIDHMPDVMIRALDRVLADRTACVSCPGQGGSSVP
As to the kind of experiment: In vivo DAGLB inactivation in peritoneal macrophages, gel-based competitive ABPP using HT01. Also on record: from tissue; host or cells: thioglycolate-elicited peritoneal macrophages of treated mice. To be noted: for dose (as low as) giving complete inactivation of DAGLB in peritoneal macrophages: about 4 hours, doses about 10 to about 0.1 mg/kg.

The target of assay [4] is T1, DAGLB. Description: Gel-based ABPP assay against recombinant DAGLB (HEK293T-DAGLB lysates). Also on record: Full-length cDNAs encoding serine hydrolases were purchased from Open Biosystems; V5; host or cells: HEK293T. To be noted: recombinant. The class given is biochemical.

`O=C(N1CCCCC1Cc1ccccc1)n1cc(-c2ccc(-c3ccccc3)cc2)nn1` (stereo not shown) [KT109]: in assay [1], the PGD2 level result is reported as “remained undetectable” and the “change in PGE2” value is “significant decrease in PGE2”. For the same molecule, in assay [2], the “off-target activity / selectivity against other serine hydrolases” value was “improved selectivity against FAAH, MGLL, and ABHD11”. Besides, the “time to complete inhibition of DAGLB” value in assay [3] (5 mg/kg, i.p.) was “within the first hour”. For the same molecule, the “dose (as low as) giving complete inactivation of DAGLB in peritoneal macrophages” value in assay [3] (i.p.) was 0.5 mg/kg. In addition, in assay [3] (mouse, ip, read-out: persistent inhibition of DAGLB after 16 hours), the inhibition at 5 mg/kg was about 90%. The “activity against DAGLB” value in assay [4] was “maintaining comparable potencies against DAGLB”.
For the molecule `COc1ccc(-c2ccc(-c3cn(C(=O)N4CCCCC4c4ccccc4)nn3)cc2)cc1` (stereo not shown) [KT195], in assay [1], the PGD2 level result is “remained undetectable” and the “change in PGE2” value is reported as “not observed”. For the same molecule, the “off-target activity / selectivity against other serine hydrolases” value in assay [2] is reported as “completely inactivated ABHD6”. In addition, the “duration / time-course of DAGLB inhibition” value in assay [3] (5 mg/kg, i.p., about 1 to 16 hours) is listed as “no evidence of DAGLB inhibition during the entire time-course of treatment”. For the same molecule, in assay [3] (i.p.), the “dose (as low as) giving complete inactivation of DAGLB in peritoneal macrophages” value is over 10 mg/kg. Also, in assay [4], the “activity against DAGLB” value is on record as “negligible activity against DAGLB at micromolar concentrations”.
